# Laboratory results taken from paper PMC11472313, “Development of Fragment-Based Inhibitors of the Bacterial Deacetylase LpxC with Low Nanomolar Activity” (Journal of Medicinal Chemistry, 2024).
# Test: kinetic turbidimetric solubility
# Format: physicochemical
# Conditions: PBS with 1% DMSO, Kinetic solubility (1% DMSO/PBS)
# Experimental: The desired compounds were sequentially diluted in DMSO in a 96-well plate. 1.5 μL from each well was transferred into another 96-well plate and mixed with 148.5 μL of PBS. Plates were shaken for 5 min at 600 rpm at room temperature, and the absorbance at 620 nm was measured. Absorbance values were normalized by blank subtraction and plotted using GraphPad Prism 8.4.2 (GraphPad Software, San Diego, CA, USA). Solubility (S) was determined based on the First X value of AUC function using a threshold of 0.005.
row,Compound,solubility kinetic at 5 min
1,O=C(NC[C@H](OCc1ccc(C#Cc2ccc(CN3CCOCC3)cc2)cc1)C(=O)NO)c1c[nH]c2ccccc12 [(S)-13h],53.5 ± 1.9 µM
2,O=C(NC[C@H](OCc1ccc(C#Cc2ccc(CN3CCOCC3)cc2)cc1)C(=O)NO)c1ccc2[nH]ccc2c1 [(S)-13j],46 ± 11 µM
3,O=C(NC[C@H](OCc1ccc(C#Cc2ccc(CN3CCOCC3)cc2)cc1)C(=O)NO)c1cc[nH]n1 [(S)-13l],≥ 100 µM
